Literature values as cited in patent US9044505B2, “Multimeric biotinidase resistant multimodality probes” (priority 2012, dated 2015).

System: (strept)avidin
Conditions: (strept)avidin-biotin interaction

O=C(O)CCCC[C@@H]1SC[C@@H]2NC(=O)N[C@@H]21 [biotin]
Ka: 10^15 M
